The record followed here is paper PMC8945919 (Biomolecules, 2022).

Entries after “also recorded” stand apart in the source; their conditions may differ. Where no end group is shown, it is not given here.

Data set [1] has as its target T1, trypsin (Bos taurus, UniProt P00760).
T1 sequence (P00760 24-246): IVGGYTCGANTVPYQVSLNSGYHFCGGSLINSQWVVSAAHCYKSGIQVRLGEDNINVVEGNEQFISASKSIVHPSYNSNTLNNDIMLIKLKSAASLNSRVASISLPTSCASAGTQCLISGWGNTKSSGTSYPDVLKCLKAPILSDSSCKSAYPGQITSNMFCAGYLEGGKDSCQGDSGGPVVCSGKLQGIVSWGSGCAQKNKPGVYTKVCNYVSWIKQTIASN
As to the kind of experiment: Trypsin digestion of RAD16-I followed by MALDI-TOF. The data set is classed as in vitro ADME. Details: key to Peak Presence in MALDI Spectra: peak presence (+); absence (−). As to conditions: for Peak Presence in MALDI Spectra: fragments expected after trypsin digestion of RAD16-I, peptide 100 µM in water (50 µM elsewhere in the source), trypsin 1000:1 peptide:enzyme molar ratio, 0-30 min, untreated and thermally treated (90 °C, 10 min) samples, duplicate. On the procedure: Matrix-assisted laser desorption/ionization time of flight (MALDI-TOF) of trypsin-digested peptide samples was performed on a Bruker Ultraflex mass spectrometer, equipped with a pulsed nitrogen laser (337 nm). The peptide RAD16-I was diluted from a stock solution to a final concentration of 100 µM in water. Trypsin was added in a molar ratio 1000:1 (peptide:enzyme). Peptide samples were incubated with trypsin at 37 °C for 0, 1, 5, 10 and 30 min (performed in duplicate), and boiled in order to inactivate trypsin. Samples were prepared by mixing 0.5 µL of the peptide solution with 1 µL of the matrix solution (0.3 mg/mL, α-cyano-4-hydroxy-cinnamic acid in ethanol/acetone 2:1). The mixture was then spotted on an anchor-chip target (Bruker, Billerica, MA, USA) and allowed to evaporate to dryness at room temperature. Spectra were acquired in positive reflectron mode, using an acceleration voltage of 25 kV. Acquisition was performed in automated mode, using the Autoexecute software (Bruker, Billerica, MA, USA). A total of 1000 spectra, collected in 50-shot series at different positions of the sample spot were averaged for each sample. A mixture of standard peptides of known molecular mass in the range from 750–3500 Da (Bruker) was used for external calibration of the mass spectra.
To evaluate RAD16-I trypsin degradation, we incubated the peptide with trypsin with or without the previous denaturation step (incubation at 90 °C for 10 min). Thus, we incubated the RAD16-I samples with trypsin at 37 °C for different periods of time, and at each timepoint we mixed the reaction product with the α-cyano-4-hydroxy-cinnamic acid matrix and let the sample dry. Finally, samples were analyzed by MALDI. […] Furthermore, small peaks with m/z 1642 and 1558 could be detected, which may correspond to the peptide chain without one amino acid residue, an alanine and an arginine, respectively. These peptides are most likely impurities from the RAD16-I peptide synthesis.
We next aimed to determine if the structural changes observed by CD after denaturing RAD16-I (Figure 2) had any influence on proteolytic degradation. For that, peptide stock solution was diluted to 50 µM and then denatured or not for 10 min at 90 °C. Then, trypsin was added and incubated at 37 °C for different periods of time. The proteolytic reaction was inactivated by boiling the samples, and samples were finally mixed with the matrix and MALDI spectra were acquired. […] Moreover, no differences between untreated and thermally treated samples were detected.
We hypothesized that these unexpected results were due to an inefficient […] of trypsin when MALDI samples were prepared, in which trypsin was inactivated by boiling the samples. […] In this case, the samples were taken and immediately mixed with the MALDI-TOF matrix and evaporated on the sample holder.

Data set [2] concerns trypsin. The data set can be described thus: trypsin in water, molar ratio 1000:1 (peptide:enzyme); untreated (non-denatured) RAD16-I. The following applies: 37 °C, up to 30 min.
Data set [3] relates to trypsin. As to the kind of experiment: trypsin in water, molar ratio 1000:1 (peptide:enzyme); RAD16-I denatured for 10 min at 90 °C before trypsin. As to conditions: 37 °C, up to 30 min.
Data set [4] has as its target T1, trypsin. The data set can be described thus: Trypsin degradation of RAD16-I nanofibers imaged by AFM. The data set is classed as in vitro ADME. As to conditions: RAD16-I 100 µM in water, AFM on mica. The method, then:
(§1) To image the thermal denaturation of the self-assembling peptide, RAD16-I samples were diluted in water from a stock solution (5.38 mM) to a final concentration of 100 µM. The thermal treatment consisted of subjecting the sample to a 90 °C incubation for 10 min. Then, 1 µL of sample was deposited onto freshly cleaved mica (Grade V5 mica, Structure Probe Inc., 01804-CA, West Chester, PA, USA), rinsed twice with Milli-Q water and observed under the AFM. For RAD16-I degradation experiments, samples were prepared as follows: RAD16-I was diluted in water from a stock solution at a final concentration of 100 µM. For thermal treated samples, a 10 min denaturation step (incubation at 90 °C) was performed prior to the enzymatic degradation. Samples were cooled at room temperature and trypsin (Merck, T1426) was added at a 1:1000 molar ratio (enzyme:peptide). Samples (1 µL) were taken at 10 and 60 min and were deposited onto freshly cleaved mica, rinsed twice with Milli-Q water, air dried and scanned under the AFM.
AFM images were obtained with a silicon-scanning probe (AC240-TS, Asylum Research) with a resonance frequency of 70 KHz, spring constant 2 N/m, tip curvature radius <10 nm and 240 μm length. Images were obtained with a Multimode AFM microscope (Nanoscope IIIa, Digital Instruments, Santa Barbara, CA, USA) operating in TappingMode. AFM scans were taken at a resolution of 512 × 512 pixels and produced topographic images of samples, whose brightness of features increased as a function of height. Typical scanning parameters were as follows: tapping frequency 75 kHz, RMS amplitude before engagement 1–1.5 V, setpoint 0.7–1 V, integral and proportional gains from 0.3–0.6 and 0.4–0.6, respectively, and scan rate 1.51 Hz.
Because MALDI spectra results indicated peptide proteolysis upon trypsin treatment (Figure 4), we expected to detect structural changes in the peptide using AFM analysis. RAD16-I samples incubated with trypsin were taken at 10 and 60 min and directly spotted into freshly cleaved mica. Then the mica was rinsed with deionized water, dried and observed under the AFM. […]

Data set [5] is described as follows: Thermal stability of secondary structure by circular dichroism. The data set is classed as physicochemical. The method, then:
Circular dichroism studies were performed on a JASCO-810 spectropolarimeter equipped with a Peltier system. RAD16-I samples (commercially available as PuraMatrix^TM, 354250, Corning, Corning, NY, USA) were diluted from a peptide stock solution (1% in water, 5.38 mM) in deionized water to a final concentration of 25, 50 and 75 µM and allowed to equilibrate at 20 or 90 °C for 10 min prior to analysis. CD data were acquired in a range from 195–240 nm at a band width of 1 nm and scan speed of 20 nm/s.
As a self-assembling peptide, RAD16-I is composed of repeating units of hydrophilic and hydrophobic amino acids, in which the charged residues alternate positive and negative charges, forming a β-sheet structure in aqueous solutions (Figure 1). This characteristic sequence is the one responsible for the self-assembly of the peptide molecules into a hydrogel, formed by a network of interweaving nanofibers from 10–20 nm in diameter and 50–200 nm in pore size and, thus, the applicability of the material as a scaffold in biomedical applications. Circular dichroism (CD) studies were performed to characterize the RAD16-I peptide structure. As a peptide with a β-sheet secondary structure, RAD16-I circular dichroism spectrum at room temperature (20 °C) presented a minimum molar ellipticity at 218 nm, which represents the β-sheet content, and a maximum of approximately 195 nm, which corresponds to the backbone twist of the peptide in the β-sheet configuration [38]. […] This spectrum was also maintained when the peptide was incubated at 40 °C.
On the technique in general: Circular dichroism is widely used to follow secondary structure.

Data set [6] in a line: Thermal denaturation of nanofibers imaged by AFM. It counts as physicochemical. The following applies: 100 µM in water, AFM on mica. On the procedure: as §1
AFM images were obtained with a silicon-scanning probe (AC240-TS, Asylum Research) with a resonance frequency of 70 KHz, spring constant 2 N/m, tip curvature radius <10 nm and 240 μm length. Images were obtained with a Multimode AFM microscope (Nanoscope IIIa, Digital Instruments, Santa Barbara, CA, USA) operating in TappingMode. […]

As to “ADAR [theoretical trypsin digestion fragment of RAD16-I]”, the “Peak Presence in MALDI Spectra” value on trypsin [1] (37 °C, MALDI-TOF) is listed as “+”.

In the case of “ADARADA-NH2 [theoretical trypsin digestion fragment of RAD16-I]”, at trypsin [1] (37 °C, MALDI-TOF), the “Peak Presence in MALDI Spectra” value is given as “+”.

Consider “ADARADAR [theoretical trypsin digestion fragment of RAD16-I]”, for which the “Peak Presence in MALDI Spectra” value at trypsin [1] (37 °C, MALDI-TOF) is “+”.

Regarding “ADARADARADA-NH2 [theoretical trypsin digestion fragment of RAD16-I]”, the “Peak Presence in MALDI Spectra” value at trypsin [1] (37 °C, MALDI-TOF) is reported as “+”.

Consider “ADARADARADAR [theoretical trypsin digestion fragment of RAD16-I]”, for which the “Peak Presence in MALDI Spectra” value at trypsin [1] (37 °C, MALDI-TOF) was “+”.

Take “ADARADARADARADA-NH2 [theoretical trypsin digestion fragment of RAD16-I]”: on trypsin [1] (37 °C, MALDI-TOF), the “Peak Presence in MALDI Spectra” value was “−”.

With “AcN-RADAR [theoretical trypsin digestion fragment of RAD16-I]”, the “Peak Presence in MALDI Spectra” value at trypsin [1] (37 °C, MALDI-TOF) is listed as “+”.

In the case of “AcN-RADARADAR [theoretical trypsin digestion fragment of RAD16-I]”, the “Peak Presence in MALDI Spectra” value on trypsin [1] (37 °C, MALDI-TOF) is “+”.

For the substance “AcN-RADARADARADAR [theoretical trypsin digestion fragment of RAD16-I]”, the “Peak Presence in MALDI Spectra” value on trypsin [1] (37 °C, MALDI-TOF) is on record as “+”.

For AcN-RADARADARADARADA-CONH2, the fragment found entry is reported as “AcN-RADAR, 1 min; also recorded: AcN-RADARADAR, 1 min; also recorded: AcN-RADARADARADAR, 1 min; also recorded: ADAR, 1 min; also recorded: ADARADARADA-CONH2, 1 min; also recorded: ADARADA-CONH2, 1 min; also recorded: ADARADARADAR, 1 min; also recorded: ADARADAR, 1 min” in the data set with trypsin [2] and “AcN-RADARADAR, 1 min; also recorded: AcN-RADARADARADAR, 1 min; also recorded: ADAR, 1 min; also recorded: ADARADARADA-CONH2, 1 min; also recorded: ADARADA-CONH2, 1 min; also recorded: ADARADARADAR, 1 min; also recorded: ADARADAR, 1 min; also recorded: AcN-RADAR, 1 min” with trypsin [3].

With “AcN-RADARADARADARADA-CONH2 [RAD16-I, self-assembling amphiphilic peptide scaffold, commercially available as PuraMatrix (1% in water)]”, at trypsin [1] (37 °C, MALDI-TOF), the “Peak Presence in MALDI Spectra” value was “+”. Moreover, the “peak belonging to RAD16-I (m/z 1712) after incubation with trypsin” value at trypsin [1] (peptide 50 µM, trypsin, 37 °C, 1 min or 30 min, reaction stopped by boiling, MALDI-TOF, regardless of incubation time, no difference between untreated and thermally treated) is recorded as “significantly reduced”. Moreover, at trypsin [1] (thermally denatured (90 °C, 10 min) samples compared with untreated, MALDI-TOF, Figure 4h), the “disappearance of RAD16-I peak (m/z 1713) upon trypsin treatment, denatured versus untreated samples” value is listed as “much faster”. In addition, on trypsin [1] (untreated and thermally treated samples, taken and immediately mixed with MALDI-TOF matrix and evaporated (no boiling)), the “degradation of the peptide by trypsin (m/z 1713 peak)” value is “very fast”. For the same substance, the “nanofibers after trypsin incubation, thermally treated samples, 10 min” value on trypsin [4] (90 °C 10 min then cooled, trypsin 1:1000 enzyme:peptide, 10 min) is recorded as “only the presence of short fibers was detected”. Further, the “nanofibers after trypsin incubation, thermally treated samples, 60 min” value on trypsin [4] (90 °C 10 min then cooled, trypsin 1:1000 enzyme:peptide, 60 min) is “most of the fibers had disappeared”. Further, at trypsin [4] (trypsin 1:1000 enzyme:peptide molar ratio), the “nanofibers after trypsin incubation, untreated (RT) samples, 10 min to 60 min” value was “slight change in nanofiber density”. In addition, in data set [5] (5 mg/mL in water, 2.9 mM, incubated at 20 or 90 °C for 10 min, then diluted to 25 µM to record spectra), the “thermal denaturation of concentrated solutions by CD” value is “thermal denaturalization was not observed”. For the same substance, in data set [5] (25, 50 and 75 µM in deionized water, 20 °C, 10 min equilibration, CD 195-240 nm), the “CD spectrum / secondary structure at 20 °C” value is “characteristic β-sheet spectrum”. The “CD β-sheet spectrum at 40 °C” value in data set [5] (25, 50 and 75 µM in deionized water, 40 °C) is reported as “maintained”. The “CD secondary structure at 90 °C, diluted samples” value in data set [5] (25, 50 and 75 µM in deionized water, 90 °C, 10 min) is “structural transition from β-sheet to random coil”. Also, the “reversibility of the β-sheet to random coil shift” value in data set [5] (diluted samples after heating at 90 °C, kept at room temperature) was “irreversible at room temperature for at least a week”. For the same substance, the “nanofiber network by AFM, thermally treated samples” value in data set [6] (90 °C for 10 min) is on record as “significantly less dense”. Moreover, in data set [6] (room temperature), the “nanofiber structure by AFM, untreated samples” value was “dense network of long nanofibers”.
